Assay results taken from patent US5294617A, “Angiotensin II receptor blocking 2,3,6 substituted quinazolinones” (American Cyanamid Company, priority 1993, dated 1994).
Values joined by “and” are separate entries in the source; they are usually repeats but may differ in a detail not shown here. Identical values can stand only once.

Tested on: ANGIOTENSIN II (AII) VASOPRESSOR RESPONSE
Experiment: AII Challenge: angiotensin II vasopressor response in conscious spontaneously hypertensive rats
Assay type: in vivo, Conscious Male Okamoto-Aoki SHR (rat)
Conditions: individual rat, SHR
Excerpt: By administering a compound of this invention to a rat, and then challenging with angiotensin II, a blockage of the vasopressor response is realized.
Conscious Male Okamoto-Aoki SHR, 16-20 weeks old, weighing approximately 330 g are purchased from Charles River Labs (Wilmington, Mass.). Conscious rats are restrained in a supine position with elastic tape. The area at the base of the tail is locally anesthetized by subcutaneous infiltration with 2% procaine. The ventral caudal artery and vein are isolated, and a cannula made of polyethylene (PE) 10-20 tubing (fused together by heat) is passed into the lower abdominal aorta and vena cava, respectively. The cannula is secured, heparinized (1,000 I.U./ml), sealed and the wound is closed. The animals are placed in plastic restraining cages in an upright position. The cannula is attached to a Statham P23Db pressure transducer, and pulsatile blood pressure is recorded to 10-15 minutes with a Gould Brush recorder. (Chan et al., (Drug Development Res., 18:75-94, 1989).
Angiotensin II (human sequence, Sigma Chem. Co., St. Louis, Mo.) of 0.05 and 0.1 ug/kg i.v. is injected into all rats (predosing response). Then a test compound, vehicle or a known angiotensin II antagonist is administered i.v., i.p. or orally to each set of rats. The two doses of angiotensin II are given to each rat again at 30, 60, 90, 120, 180, 240 and 300 minutes post dosing the compound or vehicle. The vasopressor response of angiotensin II is measured for the increase in systolic blood pressure in mmHg. The percentage of antagonism or blockade of the vasopressor response of angiotensin II by a compound is calculated using the vasopressor response (increase in systolic blood pressure) of angiotensin II of each rat predosing the compound as 100%. A compound is considered active if at 30 mg/kg i.v. it antagonized at least 50% of the response.

[1] = 2 mg/kg i.v., AII 0.1 mcg/kg IV, 90 min post dose, 2 mg/kg
[2] = 2 mg/kg i.v., AII 0.1 mcg/kg IV, 120 min post dose, 2 mg/kg
[3] = 2 mg/kg i.v., AII 0.1 mcg/kg IV, 180 min post dose, 2 mg/kg
[4] = 10 mg/kg i.v., AII 0.05 mcg/kg IV, 30 min post dose, 10 mg/kg
[5] = 10 mg/kg i.v., AII 0.05 mcg/kg IV, 60 min post dose, 10 mg/kg
[6] = 10 mg/kg i.v., AII 0.05 mcg/kg IV, 120 min post dose, 10 mg/kg
[7] = 10 mg/kg i.v., AII 0.05 mcg/kg IV, 180 min post dose, 10 mg/kg
[8] = 10 mg/kg i.v., AII 0.05 mcg/kg IV, 240 min post dose, 10 mg/kg
[9] = 10 mg/kg i.v., AII 0.05 mcg/kg IV, 300 min post dose, 10 mg/kg
[10] = 10 mg/kg i.v., AII 0.1 mcg/kg IV, 30 min post dose
[11] = 10 mg/kg i.v., AII 0.1 mcg/kg IV, 60 min post dose, 10 mg/kg
[12] = 10 mg/kg i.v., AII 0.1 mcg/kg IV, 90 min post dose, 10 mg/kg
[13] = 10 mg/kg i.v., AII 0.1 mcg/kg IV, 120 min post dose, 10 mg/kg
[14] = 10 mg/kg i.v., AII 0.1 mcg/kg IV, 180 min post dose, 10 mg/kg
[15] = 10 mg/kg i.v., AII 0.1 mcg/kg IV, 240 min post dose, 10 mg/kg
[16] = 10 mg/kg i.v., AII 0.1 mcg/kg IV, 300 min post dose, 10 mg/kg

## CCCCc1nc2ccc([C@@H]3C[C@H](CO)ON3C)cc2c(=O)n1Cc1ccc(-c2ccccc2-c2nn[nH]n2)cc1 (relative stereo) [Example 15, CIS-2-butyl-6-5-(hydroxymethyl)-2-methyl-3-isoxazolidinyl]-3-[[2'-(1H-tetrazol-5[1,1'-biphenyl]-4-yl]methyl]-4(3H)-quinazolinone]
[1]
  Response After AII: 245 mmHg and 240 mmHg
  Response Change: 30 mmHg and 20 mmHg
[2]
  Response After AII: 227 mmHg and 235 mmHg
  Response Change: 17 mmHg and 20 mmHg
[3]
  Response After AII: 220 mmHg and 255 mmHg
  Response Change: 10 mmHg and 35 mmHg
2 mg/kg i.v., before AII 0.05 mcg/kg IV, 30 min post dose, 2 mg/kg
  Control Before AII: 215 mmHg and 225 mmHg
2 mg/kg i.v., before AII 0.05 mcg/kg IV, 60 min post dose
  Control Before AII: 220 mmHg
2 mg/kg i.v., before AII 0.05 mcg/kg IV, 90 min post dose, 2 mg/kg
  Control Before AII: 210 mmHg and 225 mmHg
2 mg/kg i.v., before AII 0.05 mcg/kg IV, 120 min post dose, 2 mg/kg
  Control Before AII: 205 mmHg and 215 mmHg
2 mg/kg i.v., before AII 0.05 mcg/kg IV, 180 min post dose, 2 mg/kg
  Control Before AII: 203 mmHg and 215 mmHg
2 mg/kg i.v., before AII 0.1 mcg/kg IV, 30 min post dose, 2 mg/kg
  Control Before AII: 220 mmHg and 215 mmHg
2 mg/kg i.v., before AII 0.1 mcg/kg IV, 60 min post dose, 2 mg/kg
  Control Before AII: 220 mmHg and 217 mmHg
2 mg/kg i.v., before AII 0.1 mcg/kg IV, 90 min post dose, 2 mg/kg
  Control Before AII: 215 mmHg and 220 mmHg
2 mg/kg i.v., before AII 0.1 mcg/kg IV, 120 min post dose, 2 mg/kg
  Control Before AII: 210 mmHg and 215 mmHg
2 mg/kg i.v., before AII 0.1 mcg/kg IV, 180 min post dose, 2 mg/kg
  Control Before AII: 210 mmHg and 220 mmHg
[4]
  Response After AII: 180 mmHg and 190 mmHg
  Response Change: 5 mmHg and 15 mmHg
10 mg/kg i.v., AII 0.05 mcg/kg IV, 60 min post dose
  Response After AII: 190 mmHg
[5]
  Response After AII: 165 mmHg
  Response Change: 0 mmHg and 1 mmHg
10 mg/kg i.v., AII 0.05 mcg/kg IV, 90 min post dose
  Response Change: 5 mmHg
10 mg/kg i.v., AII 0.05 mcg/kg IV, 90 min post dose, 10 mg/kg
  Response After AII: 180 mmHg and 170 mmHg
[6]
  Response After AII: 195 mmHg and 175 mmHg
  Response Change: 15 mmHg and 10 mmHg
[7]
  Response After AII: 195 mmHg and 165 mmHg
  Response Change: 30 mmHg and 10 mmHg
10 mg/kg i.v., AII 0.05 mcg/kg IV, 240 min post dose
  Response After AII: 160 mmHg
[8]
  Response After AII: 195 mmHg
  Response Change: 25 mmHg and 5 mmHg
10 mg/kg i.v., AII 0.05 mcg/kg IV, 300 min post dose
  Response After AII: 170 mmHg
[9]
  Response After AII: 185 mmHg
  Response Change: 17 mmHg and 10 mmHg
[10]
  Response After AII: 170 mmHg
  Response Change: 0 mmHg
10 mg/kg i.v., AII 0.1 mcg/kg IV, 30 min post dose, 10 mg/kg
  Response After AII: 185 mmHg
[11]
  Response After AII: 193 mmHg and 170 mmHg
  Response Change: 8 mmHg and 10 mmHg
[12]
  Response After AII: 195 mmHg and 175 mmHg
  Response Change: 10 mmHg and 15 mmHg
10 mg/kg i.v., AII 0.1 mcg/kg IV, 120 min post dose
  Response After AII: 190 mmHg
[13]
  Response After AII: 175 mmHg
  Response Change: 15 mmHg and 10 mmHg
[14]
  Response After AII: 205 mmHg and 165 mmHg
  Response Change: 35 mmHg and 8 mmHg
[15]
  Response After AII: 205 mmHg and 165 mmHg
  Response Change: 35 mmHg and 8 mmHg
[16]
  Response After AII: 190 mmHg and 200 mmHg
  Response Change: 25 mmHg and 40 mmHg
10 mg/kg i.v., before AII 0.05 mcg/kg IV, 30 min post dose
  Control Before AII: 175 mmHg
10 mg/kg i.v., before AII 0.05 mcg/kg IV, 60 min post dose, 10 mg/kg
  Control Before AII: 190 mmHg and 164 mmHg
10 mg/kg i.v., before AII 0.05 mcg/kg IV, 90 min post dose, 10 mg/kg
  Control Before AII: 175 mmHg and 165 mmHg
10 mg/kg i.v., before AII 0.05 mcg/kg IV, 120 min post dose, 10 mg/kg
  Control Before AII: 180 mmHg and 165 mmHg
10 mg/kg i.v., before AII 0.05 mcg/kg IV, 180 min post dose, 10 mg/kg
  Control Before AII: 165 mmHg and 155 mmHg
10 mg/kg i.v., before AII 0.05 mcg/kg IV, 240 min post dose, 10 mg/kg
  Control Before AII: 170 mmHg and 155 mmHg
10 mg/kg i.v., before AII 0.05 mcg/kg IV, 300 min post dose, 10 mg/kg
  Control Before AII: 168 mmHg and 160 mmHg
10 mg/kg i.v., before AII 0.1 mcg/kg IV, 30 min post dose, 10 mg/kg
  Control Before AII: 185 mmHg and 170 mmHg
10 mg/kg i.v., before AII 0.1 mcg/kg IV, 60 min post dose, 10 mg/kg
  Control Before AII: 185 mmHg and 160 mmHg
10 mg/kg i.v., before AII 0.1 mcg/kg IV, 90 min post dose, 10 mg/kg
  Control Before AII: 185 mmHg and 160 mmHg
10 mg/kg i.v., before AII 0.1 mcg/kg IV, 120 min post dose, 10 mg/kg
  Control Before AII: 175 mmHg and 165 mmHg
10 mg/kg i.v., before AII 0.1 mcg/kg IV, 180 min post dose, 10 mg/kg
  Control Before AII: 170 mmHg and 157 mmHg
10 mg/kg i.v., before AII 0.1 mcg/kg IV, 240 min post dose, 10 mg/kg
  Control Before AII: 170 mmHg and 157 mmHg
10 mg/kg i.v., before AII 0.1 mcg/kg IV, 300 min post dose, 10 mg/kg
  Control Before AII: 165 mmHg and 160 mmHg
